What all share (type): biochemical
The target of one test is T1, human 17β-HSD1 (Homo sapiens, UniProt P14061).
T1 construct: For the partial purification of 17β-HSD1, the cytosolic fraction was precipitated with ammonium sulfate; from tissue; host or cells: human placenta, cytosolic fraction, ammonium sulfate precipitate
T1 sequence (P14061 1-328): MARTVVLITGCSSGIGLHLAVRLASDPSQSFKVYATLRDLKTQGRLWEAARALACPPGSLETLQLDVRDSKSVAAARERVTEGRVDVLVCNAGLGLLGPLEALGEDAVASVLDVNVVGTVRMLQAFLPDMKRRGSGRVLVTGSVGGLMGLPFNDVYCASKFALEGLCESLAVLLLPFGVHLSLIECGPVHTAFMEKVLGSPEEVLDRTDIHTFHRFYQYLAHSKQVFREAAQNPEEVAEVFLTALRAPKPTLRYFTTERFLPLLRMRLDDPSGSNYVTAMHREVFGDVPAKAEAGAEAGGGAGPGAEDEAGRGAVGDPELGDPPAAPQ
As to the kind of experiment: Inhibition of human 17β-HSD1 (conversion of [3H]-E1 to E2, HPLC radioflow detection). The settings on record: for IC50: read-out: IC50 [nM] h17β-HSD1; for inhibition at 1 µM: read-out: % inhibition h17β-HSD1 @ 1 μM; for inhibition at 0.01 µM: read-out: % inhibition h17β-HSD1 @ 10 nM.

Another test has as its target T2, human 17β-HSD2 (Homo sapiens, UniProt P37059).
T2 construct: 17β-HSD2 was obtained from the microsomal fraction; from tissue; host or cells: human placenta, microsomal fraction
T2 sequence (P37059 1-387): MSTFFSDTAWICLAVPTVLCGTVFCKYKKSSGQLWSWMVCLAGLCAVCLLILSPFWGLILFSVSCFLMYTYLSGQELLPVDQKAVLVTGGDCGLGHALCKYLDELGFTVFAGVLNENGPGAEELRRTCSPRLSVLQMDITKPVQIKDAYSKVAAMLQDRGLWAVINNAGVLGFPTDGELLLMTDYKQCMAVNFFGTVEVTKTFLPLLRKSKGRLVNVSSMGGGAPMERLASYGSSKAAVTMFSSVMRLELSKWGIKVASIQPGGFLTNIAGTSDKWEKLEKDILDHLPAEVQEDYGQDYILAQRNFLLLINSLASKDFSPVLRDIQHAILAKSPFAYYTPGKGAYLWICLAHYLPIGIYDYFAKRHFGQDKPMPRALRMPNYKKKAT
As to the kind of experiment: Inhibition of human 17β-HSD2 (conversion of [3H]-E2 to E1). The following applies: for IC50: read-out: IC50 [nM] h17β-HSD2; for inhibition at 1 µM: read-out: % inhibition h17β-HSD2 @ 1 μM; for inhibition at 0.01 µM: read-out: % inhibition h17β-HSD2 @ 10 nM.

Another test has as its target T3, mouse 17β-HSD1 (Mus musculus, UniProt P51656).
T3 construct: made in house; host or cells: HEK293 cells, transient transfection; 1,000 g supernatant of the cell lysate
T3 sequence (P51656 1-344): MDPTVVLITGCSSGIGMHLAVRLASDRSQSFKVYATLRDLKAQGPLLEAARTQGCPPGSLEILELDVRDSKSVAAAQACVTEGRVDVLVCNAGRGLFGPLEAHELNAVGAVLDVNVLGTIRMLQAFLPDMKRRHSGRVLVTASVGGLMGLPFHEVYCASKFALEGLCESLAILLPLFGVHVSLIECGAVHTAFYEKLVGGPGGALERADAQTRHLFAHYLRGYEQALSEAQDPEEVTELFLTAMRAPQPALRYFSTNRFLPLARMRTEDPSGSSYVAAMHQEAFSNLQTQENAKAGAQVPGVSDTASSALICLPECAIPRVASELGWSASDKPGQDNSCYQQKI
As to the kind of experiment: Inhibition of mouse 17β-HSD1 (recombinant, HEK293 lysate).

The target of a further test is T4, mouse 17β-HSD2 (Mus musculus, UniProt P51658).
T4 construct: The pellet fractions containing the microsomal 17β-HSD2 were used for the determination of E1 formation; from tissue; host or cells: mouse liver, microsomal fraction
T4 sequence (P51658 1-381): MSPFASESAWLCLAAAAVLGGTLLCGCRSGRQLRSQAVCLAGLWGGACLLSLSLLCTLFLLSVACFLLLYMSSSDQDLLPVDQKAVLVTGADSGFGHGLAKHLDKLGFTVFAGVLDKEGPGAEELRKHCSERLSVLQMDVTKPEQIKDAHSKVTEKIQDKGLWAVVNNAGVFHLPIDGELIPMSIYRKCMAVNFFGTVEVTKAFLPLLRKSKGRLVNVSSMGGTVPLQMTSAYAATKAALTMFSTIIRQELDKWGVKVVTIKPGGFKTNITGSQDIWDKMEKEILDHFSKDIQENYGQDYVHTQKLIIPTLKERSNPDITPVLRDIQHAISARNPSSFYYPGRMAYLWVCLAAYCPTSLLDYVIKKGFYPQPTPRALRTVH
Description: Inhibition of mouse 17β-HSD2 (liver microsomal fraction). The settings on record: for % inhibition m17β-HSD2 @ 50 nM: 0.05 µM; for inhibition at 0.05 µM: read-out: % inhibition m17β-HSD2 @ 50 nM. (Microsomes from liver hold many membrane-bound enzymes, among them those of drug oxidation.)

The mark [1] stands for this setting: human placental cytosolic enzyme, E1 500 nM, NADH, Tables 1, 4-11.
[2] abbreviates: read-out: % inhibition m17β-HSD1 @ 1 μM.
Setting [3] is: read-out: % inhibition m17β-HSD2 @ 1 μM.
The mark [4] stands for this setting: read-out: Inhibition @ 1 μM m17β-HSD1.
[5] abbreviates: read-out: Inhibition @ 1 μM m17β-HSD2.

Read-outs that look alike come from different tables or passages of the source.

These results are taken from patent publication US9884839B2, “Inhibitors of 17Beta-hydroxysteroid dehydrogenases type 1 and type 2” (ElexoPharm GmbH, priority 2014, dated 2018).

Description for human 17β-HSD2: Fresh human placenta was homogenized, and cytosolic fraction and microsomes were separated by differential centrifugation at 1,000 g, 10,000 g and 150,000 g.
(§1) The conversion rate was calculated after analysis of the resulting chromatograms according to the following equation: % conversion=[% E1/(% E1+% E2)]×100
Description for mouse 17β-HSD2: Microsomal 17β-HSD2 fractions were obtained from mouse or rat liver. Fresh liver tissues were processed as described for the human placental 17β-HSD2 preparation. The pellet fractions containing the microsomal 17β-HSD2 were used for the determination of E1 formation.
as §1

Turning to `Cc1c(O)cccc1C(=O)c1ccc(-c2ccc(F)cc2F)s1` [B, reference compound], the figures for the 50% inhibitory concentration (IC50) on human 17β-HSD1 (setting [1]) and on human 17β-HSD2 were 3430 nM and 300 nM, respectively. Further, the inhibition at 1 µM on mouse 17β-HSD1 (setting [2]) is 5%; on mouse 17β-HSD2 (setting [3]), 18%.
`O=C(c1ccc(Br)s1)c1cc(F)c(F)c(O)c1F` [Compound 1g, (5-Bromo-thiophen-2-yl)-(2,4,5-trifluoro-3-hydroxy-phenyl)-methanone]: the IC50 at human 17β-HSD1 (setting [1]) turned out to be 130 nM; at human 17β-HSD2, 27 nM. For the same molecule, the inhibition at 1 µM on mouse 17β-HSD1 (setting [2]) came out at 11%; at mouse 17β-HSD1 (setting [4]) it was 11%; on mouse 17β-HSD2 (setting [3]), 44%; on mouse 17β-HSD2 (setting [5]), 44%.
Consider `O=C(c1ccc(-c2cccnc2)s1)c1c(F)ccc(O)c1F` [Compound 9, (2,6-Difluoro-3-hydroxy-phenyl)-(5-pyridin-3-yl-thiophen-2-yl)-methanone], for which the inhibition at 1 µM at human 17β-HSD1 was 57%; at human 17β-HSD2 it was 64%; at mouse 17β-HSD1 (setting [4]) it was 14%; at mouse 17β-HSD2 (setting [5]), 23%.
Consider `COc1ccc(-c2sc(C(=O)c3c(F)ccc(O)c3F)cc2C)cc1Cl` [Compound 13, [5-(3-Chloro-4-methoxy-phenyl)-4-methyl-thiophen-2-yl]-(2,6-difluoro-3-hydroxy-phenyl)-methanone], for which the half-inhibitory concentration (IC50) on human 17β-HSD1 (setting [1]) came out at 5.5 nM; at human 17β-HSD2, 52 nM. Besides, the values for the inhibition at 1 µM on mouse 17β-HSD1 (setting [4]) and on mouse 17β-HSD2 (setting [5]) were 25% and 65%, respectively.
In the same order, the values of `O=C(c1ccc(-c2cc(F)c(OC(F)F)c(F)c2)s1)c1c(F)ccc(O)c1F` [Compound 17, (2,6-Difluoro-3-hydroxy-phenyl)-[5-(4-difluoromethoxy-3,5-difluoro-phenyl)-thiophen-2-yl]-methanone] are 7 nM, 36 nM, 47% and 74%.
Turning to `O=C(c1ccc(-c2cccc(Cl)c2O)s1)c1c(F)ccc(O)c1F` [Compound 22, [5-(3-Chloro-2-hydroxy-phenyl)-thiophen-2-yl]-(2,6-difluoro-3-hydroxy-phenyl)-methanone], the IC50 on human 17β-HSD1 came to 27 nM; at human 17β-HSD2 it was 29 nM. For the same molecule, the figures for the inhibition at 1 µM at mouse 17β-HSD1 (setting [4]) and at mouse 17β-HSD2 (setting [5]) were 46% and 82%, respectively.
In the same order, the values of `COc1c(Cl)cc(-c2ccc(C(=O)c3c(F)ccc(O)c3F)s2)cc1CN1CCN(C(C)=O)CC1` [Compound 28, 1-(4-{3-Chloro-5-[5-(2,6-difluoro-3-hydroxy-benzoyl)-thiophen-2-yl]-2-methoxy-benzyl}-piperazin-1-yl)-ethanone] are 1.4 nM, 21 nM, 37% and 45%.
As for `COc1c(Cl)cc(-c2ccc(C(=O)c3c(F)ccc(OC(C)=O)c3F)s2)cc1Cn1ccnn1` [Compound 31a, Acetic acid 3-[5-(3-chloro-4-methoxy-5-[1,2,3]triazol-1-ylmethyl-phenyl)-thiophene-2-carbonyl]-2,4-difluoro-phenylester], the inhibition at 1 µM at human 17β-HSD1 came to 28%; on human 17β-HSD2 it was 32%; on mouse 17β-HSD1 (setting [4]) it was 20%.
Turning to `O=C(c1ccc(-c2cncc(F)c2)s1)c1cc(F)c(F)c(O)c1F` [Compound 39, [5-(5-Fluoro-pyridin-3-yl)-thiophen-2-yl]-(2,4,5-trifluoro-3-hydroxy-phenyl)-methanone], the IC50 stood at 59 nM at human 17β-HSD1 (setting [1]) and 18 nM at human 17β-HSD2. In addition, the inhibition at 1 µM at mouse 17β-HSD1 (setting [4]) was 9%; on mouse 17β-HSD2 (setting [5]), 24%.
Taken in the same sequence, the figures for `O=C(c1ccc(-c2ccc(O)c(F)c2)s1)c1cc(F)c(F)c(O)c1F` [Compound 42, (5-(3-Fluoro-4-hydroxyphenyl)thiophen-2-yl)(2,4,5-trifluoro-3-hydroxyphenyl)methanone] were 2.5 nM, 3 nM, 46% and 84%.
Turning to `O=C(c1ccc(-c2ccc3cc[nH]c3c2)s1)c1cc(F)c(F)c(O)c1F` [Compound 43, (5-(1H-Indol-6-yl)thiophen-2-yl)(2,4,5-trifluoro-3-hydroxyphenyl)methanone], the IC50 on human 17β-HSD1 (setting [1]) was found to be 28.8 nM; at human 17β-HSD2, 7.5 nM; at mouse 17β-HSD1 (recombinant mouse enzyme, E1 10 nM, NADPH, read-out: IC50 m17β-HSD1) it was 1140 nM; on mouse 17β-HSD2 (read-out: IC50 m17β-HSD2), 113 nM.
On to `O=C(c1ccc(-c2cc(Cl)c(O)c(Cl)c2)s1)c1cc(F)c(F)c(O)c1F` [Compound 49, (5-(3,5-Dichloro-4-hydroxyphenyl)thiophen-2-yl)(2,4,5-trifluoro-3-hydroxyphenyl)methanone], for which the figures for the IC50 at human 17β-HSD1 (setting [1]) and at human 17β-HSD2 were 9.1 nM and 11.2 nM, respectively. Besides, at mouse 17β-HSD1 (setting [4]), the inhibition at 1 µM was 13.8%.
Consider `Cc1cc(-c2ccc(C(=O)c3cc(F)cc(O)c3C)s2)cc(C)c1O` [Compound 71, (5-(4-Hydroxy-3,5-dimethylphenyl)thiophen-2-yl)(5-fluoro-3-hydroxy-2-methylphenyl)methanone], for which, at human 17β-HSD1 (setting [1]), the IC50 came to 12.6 nM. On human 17β-HSD2, the concentration for half-maximal inhibition (IC50) came to 50 nM. In addition, on mouse 17β-HSD2, the “% inhibition m17β-HSD2 @ 50 nM” value is 79% @ 50 nM and the inhibition at 0.05 µM turned out to be 79%.
Turning to `Cc1cc(-c2ccc(C(=O)c3cc(F)c(F)c(O)c3C)s2)cc(C)c1O` [Compound 72, (4,5-Difluoro-3-hydroxy-2-methylphenyl)(5-(4-hydroxy-3,5-dimethylphenyl)thiophen-2-yl)methanone], the concentration for half-maximal inhibition (IC50) on human 17β-HSD1 (setting [1]) came out at 44 nM; at human 17β-HSD2, 159 nM. Also, at mouse 17β-HSD2, the “% inhibition m17β-HSD2 @ 50 nM” value was 22% @ 50 nM. At mouse 17β-HSD2, the inhibition at 0.05 µM worked out at 22%.
Consider `NS(=O)(=O)c1ccc(-c2ccc(C(=O)c3c(F)ccc(O)c3F)s2)cc1` [Compound 75, 4-(5-(2,6-Difluoro-3-hydroxybenzoyl)thiophen-2-yl)benzenesulfonamide], for which the inhibition at 0.01 µM worked out at 18% on human 17β-HSD1 and 54% on human 17β-HSD2. Further, at mouse 17β-HSD2, the inhibition at 0.05 µM amounted to 10%.
For `NS(=O)(=O)c1cccc(-c2ccc(C(=O)c3c(F)ccc(O)c3F)s2)c1` [Compound 76, 3-(5-(2,6-Difluoro-3-hydroxybenzoyl)thiophen-2-yl)benzenesulfonamide], the inhibition at 0.01 µM was 34% on human 17β-HSD1 and 26% at human 17β-HSD2. Besides, the inhibition at 0.05 µM at mouse 17β-HSD2 stood at 1.8%.
In the same order, the values of `COc1c(Cl)cc(-c2ccc(C(=O)c3c(F)ccc(O)c3Cl)s2)cc1Cl` [Compound 78, (2-Chloro-6-fluoro-3-hydroxyphenyl)(5-(3,5-dichloro-4-methoxyphenyl)thiophen-2-yl)methanone] are 41%, 54% and 76%.

For orientation: IC50 means the concentration that inhibits the measured activity by half. For orientation: inhibition means the share of the control response that was lost under treatment.
